{"source": "the supplement of paper PMC10307832", "assay_in_all_cases": "relative viability (nuclei count vs DMSO), 5 days (fraction); higher = more cells survive", "key": {"Ispinesib + Palbociclib": {"compound": "Cc1ccc(C(=O)N(CCCN)[C@@H](c2nc3cc(Cl)ccc3c(=O)n2Cc2ccccc2)C(C)C)cc1 [Ispinesib] + CC(=O)c1c(C)c2cnc(Nc3ccc(N4CCNCC4)cn3)nc2n(C2CCCC2)c1=O [Palbociclib] (partner 0.5 µM)", "outline": "(§1)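 Values are medians from duplicate plates. Each reflects relative viability, defined as the nuclei count of treated wells over that of vehicle wells. Lung cancer cell lines in 1536-well plates were pin-tool dosed one day after seeding with one drug alone or with a fixed anchor-drug dose plus five library-drug doses (not always all listed) in √10 steps, then fixed, stained and imaged at 4× after 5 days.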"}, "Linsitinib + Lapatinib": {"compound": "C[C@]1(O)C[C@@H](c2nc(-c3ccc4ccc(-c5ccccc5)nc4c3)c3c(N)nccn32)C1 [Linsitinib] + CS(=O)(=O)CCNCc1ccc(-c2ccc3ncnc(Nc4ccc(OCc5cccc(F)c5)c(Cl)c4)c3c2)o1 [Lapatinib] (partner 2 µM)", "outline": "as §1"}, "Linsitinib + Trametinib": {"compound": "C[C@]1(O)C[C@@H](c2nc(-c3ccc4ccc(-c5ccccc5)nc4c3)c3c(N)nccn32)C1 [Linsitinib] + CC(=O)Nc1cccc(-n2c(=O)n(C3CC3)c(=O)c3c(Nc4ccc(I)cc4F)n(C)c(=O)c(C)c32)c1 [Trametinib] (partner 0.02 µM)", "outline": "as §1"}, "Linsitinib + Pemetrexed": {"compound": "C[C@]1(O)C[C@@H](c2nc(-c3ccc4ccc(-c5ccccc5)nc4c3)c3c(N)nccn32)C1 [Linsitinib] + Nc1nc2[nH]cc(CCc3ccc(C(=O)N[C@@H](CCC(=O)O)C(=O)O)cc3)c2c(=O)[nH]1 [Pemetrexed] (partner 0.2 µM)", "outline": "as §1"}}, "data": [{"cell line": "UMC-11", "values": [{"measurement": "relative viability", "setting": "Ispinesib + Palbociclib; first compound 0.001 µM", "result": 0.336}, {"measurement": "relative viability", "setting": "Ispinesib + Palbociclib; first compound 0.003162 µM", "result": 0.311}, {"measurement": "relative viability", "setting": "Ispinesib + Palbociclib; first compound 0.01 µM", "result": 0.309}, {"measurement": "relative viability", "setting": "Ispinesib + Palbociclib; first compound 0.03162 µM", "result": 0.217}, {"measurement": "relative viability", "setting": "Ispinesib + Palbociclib; first compound 0.1 µM", "result": 0.237}, {"measurement": "relative viability", "setting": "Linsitinib + Lapatinib; first compound 0.01 µM", "result": 0.889}, {"measurement": "relative viability", "setting": "Linsitinib + Lapatinib; first compound 0.03162 µM", "result": 0.871}, {"measurement": "relative viability", "setting": "Linsitinib + Lapatinib; first compound 0.1 µM", "result": 1.08}, {"measurement": "relative viability", "setting": "Linsitinib + Lapatinib; first compound 0.3162 µM", "result": 0.303}, {"measurement": "relative viability", "setting": "Linsitinib + Lapatinib; first compound 1 µM", "result": 0.843}, {"measurement": "relative viability", "setting": "Linsitinib + Trametinib; first compound 0.01 µM", "result": 0.72}, {"measurement": "relative viability", "setting": "Linsitinib + Trametinib; first compound 0.03162 µM", "result": 0.76}, {"measurement": "relative viability", "setting": "Linsitinib + Trametinib; first compound 0.1 µM", "result": 0.7}, {"measurement": "relative viability", "setting": "Linsitinib + Trametinib; first compound 0.3162 µM", "result": 0.211}, {"measurement": "relative viability", "setting": "Linsitinib + Trametinib; first compound 1 µM", "result": 0.471}, {"measurement": "relative viability", "setting": "Linsitinib + Pemetrexed; first compound 0.01 µM", "result": 0.7}, {"measurement": "relative viability", "setting": "Linsitinib + Pemetrexed; first compound 0.03162 µM", "result": 0.771}, {"measurement": "relative viability", "setting": "Linsitinib + Pemetrexed; first compound 0.1 µM", "result": 0.817}, {"measurement": "relative viability", "setting": "Linsitinib + Pemetrexed; first compound 0.3162 µM", "result": 0.597}, {"measurement": "relative viability", "setting": "Linsitinib + Pemetrexed; first compound 1 µM", "result": 0.776}]}]}
